# Source: PMC8672774, “Discovery of cell active macrocyclic peptides with on-target inhibition of KRAS signaling” (Chemical Science, 2021)
# Legend:
# [1] = test system: MAPK and PI3K signaling in A375 cells (BRAF^V600E); experiment: Western blot of MAPK and PI3K signaling in A375 cells; type: cell-based
# Protocol: (§1) Western Blotting: Cells were seeded in 24-well poly-D-lysine coated plates and treated with the indicated peptides the next day. Following incubation, 100 μl of 1X Bolt™ LDS sample buffer supplemented with NuPAGE® sample reducing agent was added. Wells were scrapped using wide orifice
# bath sonicator (QSonica).
# (§2) onto nitrocellulose membranes using the Trans-Blot® Turbo™ semi-dry sy s te m ( Bio -rad), and blocked for 1 hour at room temperature with tris-buffered saline (TBS) Odyssey blocking buffer (Li- Cor). Blots were probed with the appropriate primary antibodies overnight at 4°C in Odyssey blocking buffer supplemented with 0.1% Tween-20, followed by the secondary antibodies IRDye® 680RD donkey anti-mouse IgG or IRDye® 800CW donkey anti-rabbit IgG (Li- Cor) for 1 hour at room temperature.
# (§3) Fluorescent signals were imaged and quantified using Odyssey® CLx. Primary antibodies used were:
# [2] = test system: MAPK and PI3K signaling in SK-MEL-28 cells (BRAF^V600E); experiment: Western blot of MAPK and PI3K signaling in SK-MEL-28 cells; type: cell-based
# Protocol: as §1
# bath sonicator (QSonica).
# as §2, §3
# in vitro = conditions: human
# rat mast cells = experiment: Ex vivo rat mast cell degranulation and histamine release assay; conditions: for rMCD histamine release threshold: lowest concentration at which histamine release was observed, rat peritoneal mast cells, 30 min; for activation of mast cell degranulation (histamine release), in words: ex vivo, rat mast cells
# Protocol: The reported rat mast cell degranulation (rMCD) value in Table 4 is a threshold for the lowest concentration at which a two-fold change in histamine release was observed.
# In Vitro Rat M ast Cell Degranulation and H istamine Release Ass ess m ent: Peritoneal lavage was isolated
# from Wister- Han rats as described in literature. In brief, animals were anesthetized with xylene followed
# by an injection of about 10 mL of Tyrode buffer (12 mM NaHCO3, 127 mM NaCl, 5 mM KCl, 0.5 mM
# NaH2PO4, 1 mM MgCl2, 5 mM Glucose and 10 mM HEPES, pH 7.4) into the peritoneal cavity. After a
# gentle abdomen massage, peritoneal lavage was collected and centrifuged at 350 x g for 5 minutes. Cell
# pellets were resuspended in Tyrode buffer with 10% heat inactivated rat serum to reach a final
# Freshly isolated rat peritoneal cells were aliquoted to a 96 well tissue-
# culture plate (100 µL per well).
# peptides for 30 minutes at 37°C. After incubation, the plate was centrifuged at 350 x g for 2 minutes at
# room temperature. Supernatant were collected and histamine concentration was measured by ELISA
# (Neogen, Lansing, MI) following vendor’s instructions. Amount of histamine in the supernatant was
# presented as ng/mL. A detection of histamine release was defined as the histamine concentration in
# from 10 vehicle-control treated samples from the same animal). The lowest concentration that a
# [3] = test system: pERK and pAKT in AsPC-1 cells; experiment: Western blot of KRAS signaling (pERK, pAKT) in AsPC-1 cells; type: cell-based; conditions: 1 hour and 16 hour time-points
# Protocol: as §1
# bath sonicator (QSonica).
# as §2, §3
# (D14E12) (Cell Signaling Technology, #8 24 2), phospho-IκBα (Ser32) (Cell Signaling Technology, #2 85 9) , IκBα (L35A5) (Cell Signaling Technology, #4 81 4) , NanoLuc (Promega, N7000) and pan-RAS (Sigma,
# mM PMSF and Co mplete™ EDTA-free protease inhibitor cocktail (Roche) for 30 min with intermittent
half-life at 1 µM (in vitro; HeLa cell homogenate),SMILES,rMCD histamine release threshold (rat mast cells),other results
–,"Cc1ccc(NC(=O)c2cccc(C(C)(C)C#N)c2)cc1Nc1ccc2ncn(C)c(=O)c2c1 [AZ628, reference compound]",–,inhibition of MAPK signaling in A375 [1]: inhibited MAPK signaling; inhibition of MAPK signaling in SK-MEL-28 [2]: inhibited MAPK signaling
2.37 h,CC[C@H](C)[C@@H]1NC(=O)[C@H](Cc2ccc(O)cc2)NC(=O)[C@H](CC(C)C)NC(=O)[C@]2(C)CCCN2C(=O)[C@H](NC(=O)[C@H](CCCNC(=N)N)NC(=O)[C@H](CCCNC(=N)N)NC(=O)[C@H](CCCCN=[N+]=[N-])NC(C)=O)CSCSC[C@@H](C(=O)N[C@@H](CCCNC(=N)N)C(=O)N[C@@H](CCCNC(=N)N)C(N)=O)NC(=O)[C@H](C(C)C)NC(=O)[C@@H]2CCCN2C(=O)[C@H](CC(=O)O)NC(=O)[C@H](Cc2ccc(O)cc2)NC(=O)[C@H](CO)NC1=O [Compound 14],–,–
1.9 h,CC[C@H](C)[C@@H]1NC(=O)[C@H](Cc2ccc(O)cc2)NC(=O)[C@](C)(CC(C)C)NC(=O)[C@@H]2CCCN2C(=O)[C@H](NC(=O)[C@H](CCCNC(=N)N)NC(=O)[C@H](CCCNC(=N)N)NC(=O)[C@H](CCCCN=[N+]=[N-])NC(C)=O)CSCSC[C@@H](C(=O)N[C@@H](CCCNC(=N)N)C(=O)N[C@@H](CCCNC(=N)N)C(N)=O)NC(=O)[C@H](C(C)C)NC(=O)[C@@H]2CCCN2C(=O)[C@H](CC(=O)O)NC(=O)[C@H](Cc2ccc(O)cc2)NC(=O)[C@H](CO)NC1=O [Compound 15],–,–
> 6.22 h,CC[C@H](C)[C@@H]1NC(=O)[C@](C)(Cc2ccccc2)NC(=O)[C@H](CC(C)C)NC(=O)[C@@H]2CCCN2C(=O)[C@H](NC(=O)[C@H](CCCNC(=N)N)NC(=O)[C@H](CCCNC(=N)N)NC(=O)[C@H](CCCCN=[N+]=[N-])NC(C)=O)CSCSC[C@@H](C(=O)N[C@@H](CCCNC(=N)N)C(=O)N[C@@H](CCCNC(=N)N)C(N)=O)NC(=O)[C@H](C(C)C)NC(=O)[C@@H]2CCCN2C(=O)[C@H](CC(=O)O)NC(=O)[C@H](Cc2ccc(O)cc2)NC(=O)[C@H](CO)NC1=O [Compound 16],–,–
2.57 h,CC[C@H](C)[C@@H]1NC(=O)[C@H](Cc2ccc(O)cc2)NC(=O)[C@H](CC(C)C)NC(=O)[C@@H]2CCCN2C(=O)[C@H](NC(=O)[C@H](CCCNC(=N)N)NC(=O)[C@H](CCCNC(=N)N)NC(=O)[C@H](CCCCN=[N+]=[N-])NC(C)=O)CSCSC[C@@H](C(=O)N[C@@H](CCCNC(=N)N)C(=O)N[C@@H](CCCNC(=N)N)C(N)=O)NC(=O)[C@H](C(C)C)NC(=O)[C@@H]2CCCN2C(=O)[C@H](CC(=O)O)NC(=O)[C@H](Cc2ccc(O)cc2)NC(=O)[C@](C)(CO)NC1=O [Compound 17],–,–
1.18 h,CC[C@H](C)[C@@H]1NC(=O)[C@H](Cc2ccc(O)cc2)NC(=O)[C@H](CC(C)C)NC(=O)[C@@H]2CCCN2C(=O)[C@H](NC(=O)[C@H](CCCNC(=N)N)NC(=O)[C@H](CCCNC(=N)N)NC(=O)[C@H](CCCCN=[N+]=[N-])NC(C)=O)CSCSC[C@@H](C(=O)N[C@@H](CCCNC(=N)N)C(=O)N[C@@H](CCCNC(=N)N)C(N)=O)NC(=O)[C@H](C(C)C)NC(=O)[C@@H]2CCCN2C(=O)[C@H](CC(=O)O)NC(=O)[C@](C)(Cc2ccc(O)cc2)NC(=O)[C@H](CO)NC1=O [Compound 18],–,–
0.683 h,CC[C@H](C)[C@@H]1NC(=O)[C@H](Cc2ccc(O)cc2)NC(=O)[C@H](CC(C)C)NC(=O)[C@@H]2CCCN2C(=O)[C@H](NC(=O)[C@H](CCCNC(=N)N)NC(=O)[C@H](CCCNC(=N)N)NC(=O)[C@H](CCCCN=[N+]=[N-])NC(C)=O)CSCSC[C@@H](C(=O)N[C@@H](CCCNC(=N)N)C(=O)N[C@@H](CCCNC(=N)N)C(N)=O)NC(=O)[C@H](C(C)C)NC(=O)[C@@H]2CCCN2C(=O)[C@](C)(CC(=O)O)NC(=O)[C@H](Cc2ccc(O)cc2)NC(=O)[C@H](CO)NC1=O [Compound 19],–,–
2.23 h,CC[C@H](C)[C@@H]1NC(=O)[C@H](Cc2ccc(O)cc2)NC(=O)[C@H](CC(C)C)NC(=O)[C@@H]2CCCN2C(=O)[C@H](NC(=O)[C@H](CCCNC(=N)N)NC(=O)[C@H](CCCNC(=N)N)NC(=O)[C@H](CCCCN=[N+]=[N-])NC(C)=O)CSCSC[C@@H](C(=O)N[C@@H](CCCNC(=N)N)C(=O)N[C@@H](CCCNC(=N)N)C(N)=O)NC(=O)[C@H](C(C)C)NC(=O)[C@]2(C)CCCN2C(=O)[C@H](CC(=O)O)NC(=O)[C@H](Cc2ccc(O)cc2)NC(=O)[C@H](CO)NC1=O [Compound 20],–,–
2 h,CC[C@H](C)[C@@H]1NC(=O)[C@H](Cc2ccc(O)cc2)NC(=O)[C@H](CC(C)C)NC(=O)[C@@H]2CCCN2C(=O)[C@H](NC(=O)[C@H](CCCNC(=N)N)NC(=O)[C@H](CCCNC(=N)N)NC(=O)[C@H](CCCCN=[N+]=[N-])NC(C)=O)CSCSC[C@@](C)(C(=O)N[C@@H](CCCNC(=N)N)C(=O)N[C@@H](CCCNC(=N)N)C(N)=O)NC(=O)[C@H](C(C)C)NC(=O)[C@@H]2CCCN2C(=O)[C@H](CC(=O)O)NC(=O)[C@H](Cc2ccc(O)cc2)NC(=O)[C@H](CO)NC1=O [Compound 22],–,–
–,CC[C@H](C)[C@@H]1NC(=O)[C@H](Cc2ccc(O)cc2)NC(=O)[C@H](CC(C)C)NC(=O)[C@@H]2CCCN2C(=O)[C@H](NC(=O)[C@H](CCCNC(=N)N)NC(=O)[C@H](CCCNC(=N)N)NC(=O)[C@H](CCCNC(=N)N)NC(=O)[C@H](CCCCN=[N+]=[N-])NC(C)=O)CSCSC[C@@H](C(=O)N[C@@H](CCCNC(=N)N)C(=O)N[C@@H](CCCNC(=N)N)C(=O)N[C@@H](CCCNC(=N)N)C(N)=O)NC(=O)[C@H](C(C)C)NC(=O)[C@@H]2CCCN2C(=O)[C@H](CC(=O)O)NC(=O)[C@H](Cc2ccc(O)cc2)NC(=O)[C@H](CO)NC1=O [Compound 23],≥0.14 µM,–
–,CC[C@H](C)[C@@H]1NC(=O)[C@H](Cc2ccc(O)cc2)NC(=O)[C@H](CC(C)C)NC(=O)[C@@H]2CCCN2C(=O)[C@H](NC(=O)[C@H](CCCCN=[N+]=[N-])NC(C)=O)CSCSC[C@@H](C(=O)N[C@@H](CCCNC(=N)N)C(N)=O)NC(=O)[C@H](C(C)C)NC(=O)[C@@H]2CCCN2C(=O)[C@H](CC(=O)O)NC(=O)[C@H](Cc2ccc(O)cc2)NC(=O)[C@H](CO)NC1=O [Compound 24],>100 µM,"activation of mast cell degranulation (histamine release), in words (rat mast cells): free from this potential liability"
–,CC[C@H](C)[C@@H]1NC(=O)[C@H](Cc2ccc(O)cc2)NC(=O)[C@H](CC(C)C)NC(=O)[C@@H]2CCCN2C(=O)[C@H](NC(=O)[C@H](CCCCN=[N+]=[N-])NC(C)=O)CSCSC[C@@H](C(N)=O)NC(=O)[C@H](C(C)C)NC(=O)[C@@H]2CCCN2C(=O)[C@H](CC(=O)O)NC(=O)[C@H](Cc2ccc(O)cc2)NC(=O)[C@H](CO)NC1=O [Compound 25],>100 µM,"activation of mast cell degranulation (histamine release), in words (rat mast cells): free from this potential liability"
–,"N#CC(=C(/N)Sc1ccccc1N)/C(C#N)=C(/N)Sc1ccccc1N [Compound U0126, reference compound]",–,inhibition of MAPK signaling in A375 [1]: inhibited MAPK signaling; inhibition of MAPK signaling in SK-MEL-28 [2]: inhibited MAPK signaling
–,CC[C@H](C)[C@@H]1NC(=O)[C@H](Cc2ccc(O)cc2)NC(=O)[C@H](CC(C)C)NC(=O)[C@@H]2CCCN2C(=O)[C@H](NC(=O)[C@H](CCCNC(=N)N)NC(=O)[C@H](CCCNC(=N)N)NC(=O)[C@H](CCCCN=[N+]=[N-])NC(C)=O)CSCSC[C@@H](C(=O)N[C@@H](CCCNC(=N)N)C(=O)N[C@@H](CCCNC(=N)N)C(N)=O)NC(=O)[C@H](C(C)C)NC(=O)[C@@H]2CCCN2C(=O)[C@H](CC(=O)O)NC(=O)[C@H](Cc2ccc(O)cc2)NC(=O)[C@H](CO)NC1=O [MP-1687],≥3.7 µM,half-life at 1 µM (in vitro; tissue homogenate): 0.617 h
–,CC[C@H](C)[C@@H]1NC(=O)[C@H](Cc2ccc(O)cc2)NC(=O)[C@H](CC(C)C)NC(=O)[C@@H]2CCCN2C(=O)[C@H](NC(=O)[C@H](CCCNC(=N)N)NC(=O)[C@H](CCCNC(=N)N)NC(=O)[C@H](CCCNC(=N)N)NC(=O)[C@H](CCCNC(=N)N)NC(=O)[C@H](CCCCN=[N+]=[N-])NC(C)=O)CSCSC[C@@H](C(=O)N[C@@H](CCCNC(=N)N)C(=O)N[C@@H](CCCNC(=N)N)C(=O)N[C@@H](CCCNC(=N)N)C(=O)N[C@@H](CCCNC(=N)N)C(N)=O)NC(=O)[C@H](C(C)C)NC(=O)[C@@H]2CCCN2C(=O)[C@H](CC(=O)O)NC(=O)[C@H](Cc2ccc(O)cc2)NC(=O)[C@H](CO)NC1=O [MP-6483],≥0.14 µM,"inhibition of KRAS signaling (pERK, pAKT) by Western blot [3]: display cell-based inhibition"
–,"CC[C@H](C)[C@@H]1NC(=O)[C@H](Cc2ccc(O)cc2)NC(=O)[C@H](CC(C)C)NC(=O)[C@@H]2CCCN2C(=O)[C@H](NC(=O)[C@@H](CCCNC(=N)N)NC(=O)[C@@H](CCCNC(=N)N)NC(=O)[C@@H](CCCNC(=N)N)NC(=O)[C@@H](CCCNC(=N)N)NC(=O)[C@H](CCCCN=[N+]=[N-])NC(C)=O)CSCSC[C@@H](C(=O)N[C@H](CCCNC(=N)N)C(=O)N[C@H](CCCNC(=N)N)C(=O)N[C@H](CCCNC(=N)N)C(=O)N[C@H](CCCNC(=N)N)C(N)=O)NC(=O)[C@H](C(C)C)NC(=O)[C@@H]2CCCN2C(=O)[C@@H](CC(=O)O)NC(=O)[C@H](Cc2ccc(O)cc2)NC(=O)[C@H](CO)NC1=O [MP-9658, Ac-K(N3)-rrrr-cyclo(c(methylene)PLYISYdPVC)-rrrr-NH2]",–,inhibition of MAPK signaling in A375 [1]: inactive; inhibition of MAPK signaling in SK-MEL-28 [2]: inactive
–,CC[C@H](C)[C@@H]1NC(=O)[C@H](Cc2ccc(O)cc2)NC(=O)[C@H](CC(C)C)NC(=O)[C@@H]2CCCN2C(=O)[C@H](NC(=O)[C@H](CCCNC(=N)N)NC(=O)[C@H](CCCCN=[N+]=[N-])NC(C)=O)CSCSC[C@@H](C(=O)N[C@@H](CCCNC(=N)N)C(N)=O)NC(=O)[C@H](C(C)C)NC(=O)[C@@H]2CCCN2C(=O)[C@H](CC(=O)O)NC(=O)[C@H](Cc2ccc(O)cc2)NC(=O)[C@H](CO)NC1=O [MP-9903],>100 µM,"activation of mast cell degranulation (histamine release), in words (rat mast cells): free from this potential liability"
